Test results taken from PMC9169622 (Proceedings of the National Academy of Sciences of the …, 2022).
Positions count from the first letter of the chain named. “And” between values parts separate entries of the source, which are not always exact repeats. Equal values may be shown once.

Experiments:
[1] = molecular target: T1, GPR126 (Homo sapiens, UniProt Q86SQ4); assay: cell-based; assay type: cell-based
T1 sequence (Q86SQ4 38-1221): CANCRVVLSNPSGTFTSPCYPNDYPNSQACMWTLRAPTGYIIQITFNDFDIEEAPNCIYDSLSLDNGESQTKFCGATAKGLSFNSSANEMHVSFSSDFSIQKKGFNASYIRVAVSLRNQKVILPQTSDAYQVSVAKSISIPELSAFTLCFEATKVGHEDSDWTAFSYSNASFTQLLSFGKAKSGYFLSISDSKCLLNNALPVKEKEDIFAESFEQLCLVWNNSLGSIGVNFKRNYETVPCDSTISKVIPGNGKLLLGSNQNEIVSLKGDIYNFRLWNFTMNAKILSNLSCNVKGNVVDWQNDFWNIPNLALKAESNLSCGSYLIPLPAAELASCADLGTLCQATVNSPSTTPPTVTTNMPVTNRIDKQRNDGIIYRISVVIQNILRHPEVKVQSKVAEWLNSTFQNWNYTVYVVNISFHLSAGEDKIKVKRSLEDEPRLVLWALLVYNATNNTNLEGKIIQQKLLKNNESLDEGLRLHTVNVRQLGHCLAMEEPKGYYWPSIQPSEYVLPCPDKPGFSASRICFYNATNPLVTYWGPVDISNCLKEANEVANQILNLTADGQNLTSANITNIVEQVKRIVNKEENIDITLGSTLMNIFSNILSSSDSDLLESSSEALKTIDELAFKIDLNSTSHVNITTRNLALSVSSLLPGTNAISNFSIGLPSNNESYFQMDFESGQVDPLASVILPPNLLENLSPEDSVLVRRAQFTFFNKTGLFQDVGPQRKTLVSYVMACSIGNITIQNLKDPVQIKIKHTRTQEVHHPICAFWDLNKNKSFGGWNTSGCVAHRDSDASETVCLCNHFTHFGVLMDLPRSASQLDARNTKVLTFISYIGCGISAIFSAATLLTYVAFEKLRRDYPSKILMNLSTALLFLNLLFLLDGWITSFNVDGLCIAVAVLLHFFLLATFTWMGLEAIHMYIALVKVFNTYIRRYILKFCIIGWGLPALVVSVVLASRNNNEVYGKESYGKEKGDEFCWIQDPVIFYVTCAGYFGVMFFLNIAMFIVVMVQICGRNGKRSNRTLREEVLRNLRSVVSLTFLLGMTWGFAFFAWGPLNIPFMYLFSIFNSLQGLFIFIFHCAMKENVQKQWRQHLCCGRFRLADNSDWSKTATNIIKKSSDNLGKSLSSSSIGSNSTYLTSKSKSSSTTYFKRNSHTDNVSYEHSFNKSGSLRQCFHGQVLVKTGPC

[2] = molecular target: T1, GPR126; assay type: cell-based
[3] = system: MDA-MB-231 cells; assay type: cell-based, human
[4] = system: GPR126; assay type: cell-based, human
[5] = molecular target: T2, PAQR8 (Homo sapiens, UniProt Q8TEZ7); assay: GloSensor cAMP inhibition assay in HEK293 cells overexpressing PAQR8; assay type: cell-based; conditions: similar plasma membrane expression levels
T2 sequence (Q8TEZ7 1-354): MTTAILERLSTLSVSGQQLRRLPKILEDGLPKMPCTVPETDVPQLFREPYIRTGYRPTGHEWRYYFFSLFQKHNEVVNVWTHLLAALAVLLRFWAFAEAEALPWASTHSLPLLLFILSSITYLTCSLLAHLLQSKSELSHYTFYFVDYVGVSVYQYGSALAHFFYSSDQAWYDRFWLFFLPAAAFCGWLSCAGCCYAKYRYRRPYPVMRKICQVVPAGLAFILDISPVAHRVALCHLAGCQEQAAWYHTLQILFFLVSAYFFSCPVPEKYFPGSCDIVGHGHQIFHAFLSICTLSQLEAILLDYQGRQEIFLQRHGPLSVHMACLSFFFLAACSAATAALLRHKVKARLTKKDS

[6] = Plasma progesterone level after intraperitoneal injection; assay type: in vivo, nude mice
[7] = system: MDA-MB-231 cells; assay: Colony formation assay; assay type: cell-based, human
[8] = molecular target: T1, GPR126; conditions: angiotensin II and AT1R as controls
[9] = molecular target: T3, PAQR7 (Homo sapiens, UniProt Q86WK9); assay: GloSensor cAMP inhibition assay in HEK293 cells overexpressing PAQR7; assay type: cell-based; conditions: similar plasma membrane expression levels
T3 sequence (Q86WK9 1-346): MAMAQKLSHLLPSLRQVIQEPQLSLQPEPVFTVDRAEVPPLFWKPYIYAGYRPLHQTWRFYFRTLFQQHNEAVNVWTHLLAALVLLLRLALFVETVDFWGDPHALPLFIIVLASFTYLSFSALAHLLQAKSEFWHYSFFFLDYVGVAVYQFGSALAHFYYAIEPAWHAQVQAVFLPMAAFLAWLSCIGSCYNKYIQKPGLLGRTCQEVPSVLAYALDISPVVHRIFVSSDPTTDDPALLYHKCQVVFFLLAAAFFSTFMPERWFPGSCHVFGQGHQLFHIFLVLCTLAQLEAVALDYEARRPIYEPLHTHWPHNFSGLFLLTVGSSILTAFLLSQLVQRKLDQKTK

[10] = system: SRC; assay: Western blot of p-SRC Y416, p-AKT S473, p-ERK T202/Y204; assay type: cell-based, human; conditions: 10 nM
[11] = molecular target: T4, GPR126-β (Homo sapiens, UniProt Q86SQ4); assay: GloSensor cAMP inhibition assay, GPR126-β construct; assay type: cell-based
T4 sequence (Q86SQ4 841-1221 limits assumed): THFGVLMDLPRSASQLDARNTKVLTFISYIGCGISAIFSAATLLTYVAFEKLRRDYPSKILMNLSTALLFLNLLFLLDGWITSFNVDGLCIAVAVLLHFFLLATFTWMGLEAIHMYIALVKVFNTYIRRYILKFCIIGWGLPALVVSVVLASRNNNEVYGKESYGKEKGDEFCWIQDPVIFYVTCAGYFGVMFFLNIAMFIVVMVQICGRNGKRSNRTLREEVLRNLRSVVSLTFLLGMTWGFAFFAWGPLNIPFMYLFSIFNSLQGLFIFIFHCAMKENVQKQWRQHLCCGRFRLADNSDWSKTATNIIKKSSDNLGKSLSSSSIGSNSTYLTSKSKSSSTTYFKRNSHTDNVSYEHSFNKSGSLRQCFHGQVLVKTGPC

[12] = molecular target: T5, full-length GPR126 (Homo sapiens, UniProt Q86SQ4); assay: cell-based; assay type: cell-based
T5 sequence (Q86SQ4 38-1221): T1 sequence (Q86SQ4 38-1221)

[13] = system: full-length GPR126; assay: cell-based; assay type: cell-based, human
[14] = molecular target: T6, full-length GPR126 (Homo sapiens, UniProt Q86SQ4, R1057Q); assay: cell-based; assay type: cell-based
T6 sequence (Q86SQ4 38-1221 R1057Q): T1 sequence (Q86SQ4 38-1221) with R1020Q

[15] = system: MDA-MB-231 cells; assay: Nude mouse xenograft model; assay type: in vivo, nude mice; conditions: 15 mg/kg i.p. every 3 d
[16] = molecular target: T1, GPR126; conditions: angiotensin II and AT1R as controls; remark: listed apart in the source

SMILES: C[C@]12CCC(=O)C=C1CC[C@@H]1[C@@H]2CC[C@@]2(C)[C@H]1CC[C@]2(O)C(=O)CO [11-deoxycortisol]
- EC50 [1]: 1400 ± 140 nM
- Emax compared with 126-SMP, cAMP accumulation [1]: less than one-sixth
- effect on intracellular cAMP accumulation [1]: weak but detectable increase

SMILES: C[C@]12CC[C@H]3[C@@H](CCC4=CC(=O)CC[C@@]43C)[C@@H]1CC[C@@H]2O [testosterone]
- EC50 [1]: 800 ± 60 nM
- Emax compared with 126-SMP, cAMP accumulation [1]: less than one-sixth
- effect on intracellular cAMP accumulation [1]: weak but detectable increase

SMILES: C=C[C@@]1(C)CC(=O)[C@]2(O)[C@@]3(C)[C@@H](O)CCC(C)(C)[C@@H]3[C@H](O)[C@H](OC(C)=O)[C@@]2(C)O1 [Fsk, Forskolin]
- cAMP up-regulation compared to control vehicle [2]: approximately three times

SMILES: COc1cc2ncnc(Nc3ccc(Oc4ccccc4)cc3)c2cc1OC [Src-I1]
- effect of SRC inhibitor on progesterone-induced cell growth [3]: significantly suppressed

SMILES: CC(=O)[C@H]1CC[C@H]2[C@@H]3CCC4=CC(=O)CC[C@]4(C)[C@H]3CC[C@]12C [progesterone]
- BRET signal between Nluc-N terminus and FlAsH-labeled S1 site of ECL1 [4]: increase
- GPR126 response with mutation of F1085 [4]: impaired
- extracellular conformational change of GPR126 with K1001 or F1012 mutated to Ala [4]: no significant effects
- BRET signal between Nluc-tagged N terminus and FlAsH-labeled ECL2 ([4]; concentration-dependent): significant increase
- activation of PAQR8 stronger than GPR126 (potency) [5]: ~100 fold
- efficacy at PAQR8 compared with GPR126 [5]: significant lower efficacy
- maximum plasma concentration ([6]; mice, 15 mg/kg intraperitoneal injection): 151 nM
- steady plasma level ([6]; mice, 15 mg/kg intraperitoneal injection, from 8 h): 4.547 nM
- Tmax ([6]; nude, mouse, plasma, ip, 15 mg/kg): ~1 h
- cAMP levels in GPR126 knocking down cells [2]: no significant effects
- cAMP levels induced by Fsk in GPR126-expressing cells [2]: inhibited
- colony number and size in Sh-CTRL cells ([7]; MDA-MB-231 Sh-CTRL, 10 nM): increase
- increase in colony number and size after GPR126 knockdown ([7]; MDA-MB-231 Sh-GPR126, 10 nM): largely abolished
- β-arrestin-2 recruitment of GPR126 [8]: no obvious
- activation of PAQR7 stronger than GPR126 (potency) [9]: ~100 fold
- efficacy at PAQR7 compared with GPR126 [9]: significant lower efficacy
- p-SRC Y416 level, F1085A or W1081A overexpressed in GPR126-silenced cells ([10]; 5 min): failed to increase
- pY416 SRC phosphorylation, GPR126 wild-type or L937A overexpressed in GPR126-silenced cells ([10]; 5 min): able to promote
- time of maximum phosphorylation after treatment ([10]; MDA-MB-231 cells): 5 min
- phosphorylation of SRC at Y416, p-AKT S473 and p-ERK T202/Y204 ([10]; MDA-MB-231 cells, time-dependent): promoted
- EC50 for GPR126-β lower than that of full-length GPR126 [11]: ~10 fold
- Gs coupling of GPR126 [1]: not detectable
- growth of GPR126-silenced cells overexpressing wild-type GPR126 or L937A [3]: significantly promoted
- growth promotion in GPR126-silenced cells overexpressing W1081A or F1085A [3]: significantly attenuated
- increase in growth rate of Sh-CTRL cells [3]: approximately twofold
- induced cell growth in GPR126-silenced cells overexpressing R1057Q [3]: inhibited
- proliferation-promoting effect in GPR126-silenced cells [3]: attenuated
- able to inhibit Fsk-induced cAMP accumulation [12]: able to inhibit
- EC50 ([12]; EC50, cAMP inhibition, full-length GPR126): 540 nM and ~540 nM
- GPR126 activity in cAMP inhibition assay with Ala mutants [13]: significantly impaired
- potency in cAMP inhibition assay with GPR126 R1057Q mutant [14]: decreased the potency
- rates of mouse weight gain between groups [15]: not significantly different
- tumor growth in the Sh-CTRL group ([15]; 32 d): significantly enhanced
- tumor growth in the Sh-GPR126-1 group ([15]; 32 d): minimal effects
- size and weight of tumors in the Sh-CTRL group ([15]; after 32 d): significantly increased
- size and weight of tumors in the Sh-GPR126-1 group ([15]; after 32 d): no significant effects
- Gq activity of GPR126 [16]: no obvious
